Test results as given in patent publication US10640518B2, “Condensed heterocyclic compounds and pesticides” (Nissan Chemical Corporation, priority 2016, dated 2020).

Experiments:
Type in all cases: in vivo
Plutella xylostella = assay: Insecticidal test on Plutella xylostella (cabbage leaf soaking); settings: 144 h, 500 ppm solution, cabbage leaves soaked, 3rd-instar larvae, 6 days after, 25° C.
Method: Test Example 2: Insecticidal Test on Plutella xylostella
(§1) 10% emulsifiable concentrates (or 10% wettable powders) of compounds of the present invention were diluted with water containing a spreader to obtain 500 ppm solutions. Leaves of cabbage were soaked in the solutions for about 10 seconds. After the soaking, the leaves were dried in air and placed in dishes. In each dish, five 3rd-instar larvae of Plutella xylostella were released, and the dishes were covered with lids and placed in an incubator at 25° C. 6 days after, dead insects in the dishes were counted, and the mortality was calculated by using the same equation as in Test Example 1. The test was carried out in duplicate.

Spodoptera litura = assay: Insecticidal test on Spodoptera litura (cabbage leaf soaking); settings: 144 h, 500 ppm solution, cabbage leaves soaked, 3rd-instar larvae, 6 days after, 25° C.
Method: Test Example 3: Insecticidal Test on Spodoptera litura
as §1, with “Spodoptera litura” for “Plutella xylostella”

Myzus persicae = assay: Insecticidal test on Myzus persicae (spray); settings: 144 h, 500 ppm solution sprayed (2.5 mg/cm^2), apterous adults on cabbage leaves, 6 days after, 25° C.
Method: Test Example 5: Insecticidal Test on Myzus persicae
Wet absorbent cotton was laid on glass dishes having an inner diameter of 3 cm, and covered with leaves of cabbage cut into circles having a diameter of 3 cm, and 4 apterous adults of Myzus persicae were released. After a day, 10% emulsifiable concentrates (or 10% wettable powders) of compounds of the present invention were diluted with water containing a spreader to obtain 500 ppm solutions. The solutions were sprayed from a rotary spray tower (2.5 mg/cm^2), and the dishes were covered with lids and placed in an incubator at 25° C. 6 days after, dead insects were counted, and the mortality was calculated by using the same equation as in Test Example 1. The test was carried out in duplicate.

Nilaparvata lugens [1] = assay: Systemic insecticidal test on Nilaparvata lugens (root dipping); settings: 20 ppm solution, rice seedling roots dipped 7 days, 3rd-instar larvae, 6 days after the release
Method: Test Example 7: Systemic Insecticidal Test on Nilaparvata lugens
10% emulsifiable concentrates of compounds of the present invention were diluted with tap water to obtain 20 ppm solutions, and root of rice plug seedlings (at the 2-leaf stage) were dipped in the solutions. 7 days after, the rice seedlings were picked and put in test tubes, and in each tube, five 3rd-instar larvae of Nilaparvata luqens were released, and the tubes were capped with sponge and placed in an incubator at 25° C. 6 days after the release of the insects, dead insects were counted, the and the mortality was calculated by using the same equation as in Test Example 1. The test was carried out in duplicate.

Rhipicephalus sanguineus = assay: Test on the effect on Rhipicephalus sanguineus (thin film contact); settings: 96 h, application dose 10 μg/cm^2, protonymphs, 4 days after the release, 25° C.
Method: Test Example 10: Test on the Effect on Rhipicephalus sanguineus
(§2) 3.5 mg of compounds of the present invention were diluted with 3.5 ml of acetone to obtain 1,000 ppm solutions. 350 μl of the solutions were applied to the bottoms and the side walls of glass containers with an inner wall surface area of 35 cm^2, and acetone was volatilized to prepare thin films of the compounds on the inner walls of the glass containers. Since the inner wall surface area of each glass container was 35 cm^2, the application dose was 10 μg/cm^2.
(§3) To each glass container, five protonymphs (male and female) of Rhipicephalus sanguineus were released, and the containers were covered with lids and placed in an incubator at 25° C. 4 days after the release of the ticks, dead ticks were counted, and the mortality was calculated by using the same equation as in Test Example 1.

Ctenocephalides felis = assay: Test on the effect on Ctenocephalides felis (thin film contact); settings: 96 h, application dose 10 μg/cm^2, adults, 4 days after the release, 25° C.
Method: Test Example 11: Test on the Effect on Ctenocephalides felis
as §2
as §3, with “adults” for “protonymphs”, “Ctenocephalides felis” for “Rhipicephalus sanguineus”, “fleas,” for “ticks,”, “fleas” for “ticks”

Reticulitermes speratus = assay: Insecticidal test on Reticulitermes speratus (treated river sand); settings: 240 h, 0.5 ml of 100 ppm solution on 10 g river sand, adults, 10 days after, 25° C.
Method: Test Example 15: Insecticidal Test on Reticulitermes speratus
10% emulsifiable concentrates of the compounds of the present invention were prepared. The emulsifiable concentrates were diluted with water to prepare 100 ppm solutions. 0.5 ml of the solutions were dropped on 10 g of river sand and mixed. In dishes having an inner diameter of 4 cm, 1% agar (2 cm square) was laid, and the treated river sand and a filter paper piece as bait were placed. Adults of Reticulitermes speratus were released in the dishes, and the dishes were placed in an incubator at 25° C. 10 days after, dead insects in the dishes were counted, and the mortality was calculated by using the same equation as in Test Example 1. The test was carried out in duplicate.

Culex pipiens molestus = assay: Insecticidal test on Culex pipiens molestus (larvae in well plate); settings: 24 h
Method: Test Example 16: Insecticidal Test on Culex pipiens molestus
2 mg of compounds of the present invention were dissolved in 0.2 ml of dimethyl sulfoxide to prepare 1% (w/v) dimethyl sulfoxide solutions. The solutions were diluted with distilled water by a factor of 100 to prepare 100 ppm solutions. To 1.9 ml plastic plates (Cellstar 24 well plate, manufactured by Greiner Bio-One International GmbH) as test plates, 0.7 ml of water containing 10 to 30 larvae of Culex pipiens molestus one day after hatching, and 0.2 ml of an aqueous suspension of aquarium fish food (TetraMin manufactured by Spectrum Brands Japan) as bait, were dropped. 0.1 ml of the 100 ppm solutions were dropped, and the plates were placed in an incubator at 25° C. 1 day after, dead larvae were counted, and the mortality was calculated by using the same equation as in Test Example 1. The test was carried out in duplicate.

Aedes albopictus = assay: Insecticidal test on Aedes albopictus (larvae in well plate); settings: final concentration 10 ppm, larvae one day after hatching, 3 days after, 25° C.
Method: Test Example 17: Insecticidal Test on Aedes albopictus
2 mg of compounds of the present invention were dissolved in 0.2 ml of dimethyl sulfoxide to prepare 1% (w/v) dimethyl sulfoxide solutions. 0.01 ml of the solutions were mixed with 0.99 ml of pure water to prepare 0.01% (w/v) solutions. To 0.3 ml plastic plates (Cellstar 96 well culture plates, manufactured by Greiner Bio-One International GmbH) as test plates, 0.09 ml of distilled water containing 30 larvae of Aedes albopictus one day after hatching was dropped, and 0.01 ml of the 0.01% (w/v) solutions were dropped so that the final concentration would be 10 ppm. The plates were covered with lids and placed in an incubator at 25° C. 3 days after, dead larvae were counted, and the mortality was calculated by using the same equation as in Test Example 1.

[2] = system: Frankliniella occidentalis; assay: Insecticidal activity on Frankliniella occidentalis (spray on kidney bean leaves); settings: 48 h, 500 ppm solution sprayed (2.5 mg/cm^2), larvae on kidney bean leaves, 2 days after
Method: Test Example 4: Insecticidal Activity on Frankliniella occidentalis
In styrol cups having an inner diameter of 7 cm, wet filter paper was laid, kidney bean leaves cut into a 3 cm square were laid on the paper, and each leaf was inoculated with 20 larvae of Frankliniella occidentalis. 10% emulsifiable concentrates (or 10% wettable powders) of compounds of the present invention were diluted with water containing a spreader to obtain 500 ppm solutions. 2.5 ml of the solutions were sprayed from a rotary spray tower into the styrol cups (2.5 mg/cm^2). 2 days after, dead insects were counted, and the insect damage degree on kidney bean leaves was examined. The mortality was calculated by using the same equation as in Test Example 1. The insect damage degree was evaluated from the proportion of the area with insect damage on the leaves, as follows. 1: 0 to 20% insect damage, 2: 20 to 50% insect damage, 3: 50 to 70% insect damage, and 4: 70% or higher insect damage. The test was carried out in duplicate.

Nilaparvata lugens [3] = assay: Insecticidal test on Nilaparvata lugens (rice sheath soaking); settings: 144 h, 500 ppm solution, rice sheaths soaked, 3rd-instar larvae, 6 days after, 25° C.
Method: Test Example 1: Insecticidal Test on Nilaparvata lugens
10% emulsifiable concentrates (or 10% wettable powders) of compounds of the present invention were diluted with water containing a spreader to obtain 500 ppm solutions. Rice sheaths were soaked in the solutions for about 10 seconds. After the soaking, the rice sheaths were dried in air and put in test tubes. In each tube, five 3rd-instar larvae of Nilaparvata luqgens were released, and the tubes were capped with sponge and placed in an incubator at 25° C. 6 days after, dead insects in the test tubes were counted, and the mortality was calculated in accordance with the following equation. The test was carried out in duplicate. Mortality (%)=(the number of dead insects/the number of released insects)×100)

## CCS(=O)(=O)c1c(-c2nc3cc(C(F)(F)F)cnc3n2C)nn2cc(Cl)ccc12 [1-1-001a, 2-[6-chloro-3-(ethylsulfonyl)pyrazolo[1,5-a]pyridin-2-yl]-3-methyl-6-(trifluoromethyl)-3H-imidazo[4,5-b]pyridine]
Plutella xylostella
  mortality at 500 ppm: ≥ 90%
Spodoptera litura
  mortality at 500 ppm: ≥ 90%
Myzus persicae
  mortality at 500 ppm: ≥ 90%
Nilaparvata lugens [1]
  mortality at 20 ppm: ≥ 90%
Rhipicephalus sanguineus
  mortality at 10 µg/cm2: ≥ 50%
Ctenocephalides felis
  mortality at 10 µg/cm2: ≥ 50%
Reticulitermes speratus
  mortality at 100 ppm: ≥ 70%
Culex pipiens molestus
  mortality at 100 ppm: 100%
Aedes albopictus
  mortality at 10 ppm: ≥ 70%

## CCS(=O)(=O)c1c(-c2nc3cc(C(F)(F)F)cnc3n2C)nn2cc(-n3ccc(C(F)(F)F)n3)ccc12 [1-1-003a, 2-[3-(ethylsulfonyl)-6-(3-(trifluoromethyl)-1H-pyrazol-1-yl)pyrazolo[1,5-a]pyridin-2-yl]-3-methyl-6-(trifluoromethyl)-3H-imidazo[4,5-b]pyridine]
Plutella xylostella
  mortality at 500 ppm: ≥ 90%
Spodoptera litura
  mortality at 500 ppm: ≥ 90%
Ctenocephalides felis
  mortality at 10 µg/cm2: ≥ 50%
Aedes albopictus
  mortality at 10 ppm: ≥ 70%

## CCS(=O)(=O)c1c(-c2cn3cnc(C(F)(F)C(F)(F)F)cc3n2)nn2ccc(C(F)(F)F)cc12 [1-3-001a, 2-[3-(ethylsulfonyl)-5-(trifluoromethyl)pyrazolo[1,5-a]pyridin-2-yl]-7-(perfluoroethyl)imidazo[1,2-c]pyrimidine]
Plutella xylostella
  mortality at 500 ppm: ≥ 90%
Spodoptera litura
  mortality at 500 ppm: ≥ 90%
[2]
  mortality at 500 ppm: ≥ 50%
Rhipicephalus sanguineus
  mortality at 10 µg/cm2: ≥ 50%
Ctenocephalides felis
  mortality at 10 µg/cm2: ≥ 50%
Aedes albopictus
  mortality at 10 ppm: ≥ 70%

## CCS(=O)(=O)c1c(-c2cn3nc(C(F)(F)C(F)(F)F)sc3n2)nn2ccc(C(F)(F)F)cc12 [1-5-001a, 6-[3-(ethylsulfonyl)-5-(trifluoromethyl)pyrazolo[1,5-a]pyridin-2-yl]-2-(perfluoroethyl)imidazo[2,1-b][1,3,4]thiadiazole]
Plutella xylostella
  mortality at 500 ppm: ≥ 90%
Spodoptera litura
  mortality at 500 ppm: ≥ 90%
Rhipicephalus sanguineus
  mortality at 10 µg/cm2: ≥ 50%
Ctenocephalides felis
  mortality at 10 µg/cm2: ≥ 50%
Aedes albopictus
  mortality at 10 ppm: ≥ 70%

## CCS(=O)(=O)c1c2ccc(C(F)(F)F)cc2nn1-c1nc2cc(C(F)(F)F)cnc2n1C [1-10-001a, 2-[3-(ethylsulfonyl)-6-(trifluoromethyl)-2H-indazol-2-yl]-3-methyl-6-(trifluoromethyl)-3H-imidazo[4,5-b]pyridine]
Nilaparvata lugens [3]
  mortality at 500 ppm: ≥ 90%
Plutella xylostella
  mortality at 500 ppm: ≥ 90%
Spodoptera litura
  mortality at 500 ppm: ≥ 90%
Myzus persicae
  mortality at 500 ppm: ≥ 90%
Nilaparvata lugens [1]
  mortality at 20 ppm: ≥ 90%
Ctenocephalides felis
  mortality at 10 µg/cm2: ≥ 50%
Reticulitermes speratus
  mortality at 100 ppm: ≥ 70%
